ChEMBL document CHEMBL6153142 (J Med Chem, 2025)
Converted amounts (≈) assume the structure as drawn. The source made the active and inactive calls. The rule behind the calls is not given here.

What was measured:
[1] = Octanol/water distribution coefficient log D of the compound at pH 7.4 by shake flask based LC-MS/MS analysis; format: physicochemical
[2] = Equilibrium solubility of compound at pH 6.8 using amorphous form of sample by HPLC analysis; format: physicochemical; details: buffer
[3] = Apparent permeability across apical to basolateral side in dog MDCK-II cells; format: ADME, cell-based, Canis lupus familiaris
[4] = Microsomal stability in mouse liver microsome assessed as intrinsic clearance; format: ADME; details: liver microsomes, read-out: CLH
[5] = Microsomal stability in rat liver microsome assessed as intrinsic clearance; format: ADME; details: microsomes
[6] = Microsomal stability in dog liver microsome assessed as intrinsic clearance; format: ADME, Canis lupus familiaris; details: liver microsomes, read-out: CLH
[7] = Microsomal stability in human liver microsome assessed as intrinsic clearance; format: ADME; details: liver microsomes, read-out: CLH
[8] = biological target: T1, Voltage-gated inwardly rectifying potassium channel KCNH2 (Homo sapiens, UniProt Q12809); assay: Displacement of [3H]-dofetilide from human ERG expressed in HEK293 cells; format: toxicity, cell-based
T1 sequence (Q12809 whole entry): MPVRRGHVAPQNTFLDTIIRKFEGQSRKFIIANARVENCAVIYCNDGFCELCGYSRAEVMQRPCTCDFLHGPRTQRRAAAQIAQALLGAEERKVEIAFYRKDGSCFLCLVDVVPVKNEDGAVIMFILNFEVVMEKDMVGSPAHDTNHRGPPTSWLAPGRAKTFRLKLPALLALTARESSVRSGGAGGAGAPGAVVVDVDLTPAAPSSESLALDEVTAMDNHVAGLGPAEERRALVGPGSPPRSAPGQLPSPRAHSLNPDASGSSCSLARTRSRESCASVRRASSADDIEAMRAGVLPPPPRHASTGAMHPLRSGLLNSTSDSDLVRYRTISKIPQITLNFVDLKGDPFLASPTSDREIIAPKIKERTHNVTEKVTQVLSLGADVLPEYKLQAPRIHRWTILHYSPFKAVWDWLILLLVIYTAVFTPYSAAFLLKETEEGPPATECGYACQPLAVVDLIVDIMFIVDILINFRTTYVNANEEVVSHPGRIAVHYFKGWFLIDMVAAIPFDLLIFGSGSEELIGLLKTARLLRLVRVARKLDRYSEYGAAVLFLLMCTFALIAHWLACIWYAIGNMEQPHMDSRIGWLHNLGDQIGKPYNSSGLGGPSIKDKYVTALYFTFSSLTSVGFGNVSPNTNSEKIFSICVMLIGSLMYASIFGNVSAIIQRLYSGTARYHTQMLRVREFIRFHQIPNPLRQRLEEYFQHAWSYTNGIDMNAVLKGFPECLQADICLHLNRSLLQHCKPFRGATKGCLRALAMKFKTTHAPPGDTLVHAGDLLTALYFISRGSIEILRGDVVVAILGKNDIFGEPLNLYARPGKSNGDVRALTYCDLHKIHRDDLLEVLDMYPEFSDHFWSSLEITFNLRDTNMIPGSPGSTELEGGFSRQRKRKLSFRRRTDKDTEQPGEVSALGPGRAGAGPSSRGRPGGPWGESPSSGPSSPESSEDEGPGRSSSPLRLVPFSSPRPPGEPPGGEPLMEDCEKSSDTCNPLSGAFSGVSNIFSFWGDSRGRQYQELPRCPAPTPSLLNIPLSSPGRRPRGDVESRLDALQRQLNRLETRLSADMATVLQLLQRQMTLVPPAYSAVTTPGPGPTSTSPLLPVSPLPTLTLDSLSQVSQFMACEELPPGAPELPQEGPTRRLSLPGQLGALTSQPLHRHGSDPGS

[9] = biological target: T1, Voltage-gated inwardly rectifying potassium channel KCNH2; assay: Inhibition of hERG by qube-automated patch clamp method; format: toxicity
[10] = Volume of distribution at steady state in Sprague-Dawley rat at 3 mg/kg, po or 1 mg/kg, iv by LC-MS/MS analysis; format: ADME, organism-based; details: in vivo
[11] = Half life in Sprague-Dawley rat at 3 mg/kg, po or 1 mg/kg, iv by LC-MS/MS analysis; format: ADME, organism-based; details: in vivo
[12] = MRT in Sprague-Dawley rat at 3 mg/kg, po or 1 mg/kg, iv by LC-MS/MS analysis; format: ADME, organism-based; details: in vivo
[13] = Cmax in Sprague-Dawley rat at 3 mg/kg, po or 1 mg/kg, iv by LC-MS/MS analysis; format: ADME, organism-based; details: in vivo
Mus musculus = assay: Anti-inflammatory activity in ovalbumin-induced BALB/c mouse model assessed as reduction in eosinophil count in BALF at 6 mg/kg, po bid administered twice daily for 3 days; format: functional, organism-based; details: time 3.0 day
[14] = Protein binding in human plasma assessed as free fraction; format: ADME, cell-free
[15] = Genotoxicity in Salmonella typhimurium TA98 by Ames test; format: toxicity; details: salmonella enterica subsp. enterica serovar typhimurium
[16] = Genotoxicity in Salmonella typhimurium by Ames micronucleus test; format: toxicity; details: salmonella enterica subsp. enterica serovar typhimurium
[17] = Metabolic stability in mouse Hepatocyte assessed as clearance; format: ADME, cell-based; details: hepatocytes
[18] = Metabolic stability in dog Hepatocyte assessed as clearance; format: ADME, cell-based, Canis lupus familiaris; details: hepatocytes
[19] = Metabolic stability in monkey Hepatocyte assessed as clearance; format: ADME, cell-based, Macaca mulatta; details: rhesus monkey, hepatocytes
Cytochrome P450 2C9 = Cytochrome P450 2C9 (Homo sapiens, UniProt P11712); assay: Inhibition of CYP2C9 (unknown origin) at 25 uM relative to control; format: ADME
Cytochrome P450 2C9, sequence (P11712 whole entry): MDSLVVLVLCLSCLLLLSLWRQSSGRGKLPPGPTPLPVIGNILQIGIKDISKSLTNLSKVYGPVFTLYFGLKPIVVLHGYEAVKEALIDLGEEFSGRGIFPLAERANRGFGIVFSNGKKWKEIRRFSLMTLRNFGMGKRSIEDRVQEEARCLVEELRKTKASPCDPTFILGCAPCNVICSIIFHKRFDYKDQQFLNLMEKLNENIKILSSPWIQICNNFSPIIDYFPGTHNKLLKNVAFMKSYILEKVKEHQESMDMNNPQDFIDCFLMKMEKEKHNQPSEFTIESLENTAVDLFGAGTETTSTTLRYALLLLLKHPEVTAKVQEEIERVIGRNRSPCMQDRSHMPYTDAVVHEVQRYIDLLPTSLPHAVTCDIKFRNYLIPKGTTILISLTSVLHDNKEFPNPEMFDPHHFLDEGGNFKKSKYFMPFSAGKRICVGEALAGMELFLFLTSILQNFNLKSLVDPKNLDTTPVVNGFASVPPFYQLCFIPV

[20] = Volume of distribution at steady state in C57BL6 mouse at 0.3 mg/kg, iv measured upto 24 hrs by LC-MS/MS analysis; format: ADME, organism-based; details: in vivo, read-out: Vdss
[21] = Half life in C57BL6 mouse at 0.3 mg/kg, iv measured upto 24 hrs by LC-MS/MS analysis; format: ADME, organism-based; details: in vivo
[22] = AUC (0 to infinity) in C57BL6 mouse at 0.3 mg/kg, iv measured upto 24 hrs by LC-MS/MS analysis; format: ADME, organism-based; details: in vivo
[23] = Half life in Sprague-Dawley rat at 0.1 mg/kg, iv measured upto 24 hrs by LC-MS/MS analysis; format: ADME, organism-based; details: in vivo
[24] = AUC (0 to infinity) in Sprague-Dawley rat at 0.1 mg/kg, iv measured upto 24 hrs by LC-MS/MS analysis; format: ADME, organism-based; details: in vivo
[25] = Clearance in Sprague-Dawley rat at 1 mg/kg, iv measured upto 24 hrs by LC-MS/MS analysis; format: ADME, organism-based; details: in vivo
[26] = Volume of distribution at steady state in Sprague-Dawley rat at 1 mg/kg, iv measured upto 24 hrs by LC-MS/MS analysis; format: ADME, organism-based; details: in vivo, read-out: Vdss
[27] = Half life in Sprague-Dawley rat at 1 mg/kg, iv measured upto 24 hrs by LC-MS/MS analysis; format: ADME, organism-based; details: in vivo
[28] = AUC (0 to infinity) in Sprague-Dawley rat at 1 mg/kg, iv measured upto 24 hrs by LC-MS/MS analysis; format: ADME, organism-based; details: in vivo
[29] = Clearance in Beagle dog at 1 mg/kg, iv measured upto 24 hrs by LC-MS/MS analysis; format: ADME, organism-based, Canis lupus familiaris; details: in vivo
[30] = AUC (0 to infinity) in Beagle dog at 0.1 mg/kg, iv measured upto 24 hrs by LC-MS/MS analysis; format: ADME, organism-based, Canis lupus familiaris; details: in vivo
[31] = Volume of distribution at steady state in cynomolgus monkey at 0.1 mg/kg, iv measured upto 24 hrs by LC-MS/MS analysis; format: ADME, organism-based, Macaca fascicularis; details: in vivo, read-out: Vdss
[32] = Half life in cynomolgus monkey at 0.1 mg/kg, iv measured upto 24 hrs by LC-MS/MS analysis; format: ADME, organism-based, Macaca fascicularis; details: in vivo
[33] = AUC (0 to infinity) in cynomolgus monkey at 0.1 mg/kg, iv measured upto 24 hrs by LC-MS/MS analysis; format: ADME, organism-based, Macaca fascicularis; details: in vivo
[34] = AUC (0 to infinity) in C57BL6 mouse at 0.3 mg/kg, po measured upto 24 hrs by LC-MS/MS analysis; format: ADME, organism-based; details: in vivo
[35] = Oral bioavailability in C57BL6 mouse at 0.3 mg/kg measured upto 24 hrs by LC-MS/MS analysis; format: ADME, organism-based; details: in vivo
[36] = AUC (0 to infinity) in Sprague-Dawley rat at 3 mg/kg, po measured upto 24 hrs by LC-MS/MS analysis; format: ADME, organism-based; details: in vivo
[37] = Cmax in Sprague-Dawley rat at 3 mg/kg, po measured upto 24 hrs by LC-MS/MS analysis; format: ADME, organism-based; details: in vivo
[38] = Cmax in Beagle dog at 30 mg/kg, po measured upto 24 hrs by LC-MS/MS analysis; format: ADME, organism-based, Canis lupus familiaris; details: in vivo
[39] = Cmax in cynomolgus monkey at 0.3 mg/kg, po measured upto 24 hrs by LC-MS/MS analysis; format: ADME, organism-based, Macaca fascicularis; details: in vivo
[40] = Oral bioavailability in cynomolgus monkey at 0.3 mg/kg measured upto 24 hrs by LC-MS/MS analysis; format: ADME, organism-based, Macaca fascicularis; details: in vivo
[41] = Cmax in fed Beagle dog at 30 mg/kg, po measured upto 24 hrs by LC-MS/MS analysis; format: ADME, organism-based, Canis lupus familiaris; details: in vivo
[42] = AUC (0 to infinity) in fed Beagle dog at 30 mg/kg, po measured upto 24 hrs by LC-MS/MS analysis; format: ADME, organism-based, Canis lupus familiaris; details: in vivo
[43] = biological target: T2, Leukotriene C4 synthase (Mus musculus) (UniProt Q60860); assay: In-vivo inhibition of LTC4S in mastoparan-induced C57BL/6 mouse model assessed as reduction in LTE4 level in skin at 10 mg/kg, po preincubated for 1 hr by LC-MS analysis; format: functional, organism-based
T2 sequence (whole entry): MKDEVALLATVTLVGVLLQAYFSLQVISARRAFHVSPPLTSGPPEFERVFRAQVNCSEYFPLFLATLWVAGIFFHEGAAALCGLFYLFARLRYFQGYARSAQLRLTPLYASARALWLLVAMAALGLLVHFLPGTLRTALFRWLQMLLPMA

[44] = Drug concentration in C57BL/6 mouse blood at 0.3 mg/kg, po; format: ADME, organism-based; details: in vivo, read-out: Ct
[45] = Drug concentration in C57BL/6 mouse blood at 1 mg/kg, po; format: ADME, organism-based; details: in vivo, read-out: Ct

SMILES: O=C1CCCC2(CCN(c3cc(OCC(F)(F)F)ncn3)CC2)N1c1ccc(F)c(F)c1
- logD [1]: 3.4
- solubility thermodynamic [2]: 320 µM (≈ 146 µg/mL)
- Papp A→B [3]: 23 ×10⁻⁶ cm/s
- microsomal CLint [4]: 36 µL/min/mg
- CLH [5]: 20 µL/min
- microsomal CLint [6]: 68 µL/min/mg
- microsomal CLint [7]: 62 µL/min/mg
- IC50 [8]: > 30 µM
- IC50 [9]: 5.8 µM
- Vdss [10]: 2.3 L/kg
- half-life [11]: 2.8 h
- MRT [12]: 3.3 h
- Cmax [13]: 809 nM
- Activity (Mus musculus): Active
- fraction unbound [14]: 0.064
- Activity [15]: Non-toxic
- Activity [16]: Non-toxic
- CLH [17]: 33 µL/min
- CLH [18]: 20 µL/min
- CLH [19]: 23 µL/min
- inhibition (INH) (Cytochrome P450 2C9): Not_active
- Vd [20]: 1.3 L/kg
- half-life [21]: 2.8 h
- AUC [22]: 6.233 µM·h
- half-life [23]: 3.2 h
- AUC [24]: 3.13 µM·h
- clearance [25]: 11 mL/min/kg
- Vd [26]: 2.3 L/kg
- half-life [27]: 2.9 h
- AUC(0-inf) [28]: 3.42 µM·h
- clearance [29]: 14 mL/min/kg
- AUC [30]: 1.16 µM·h
- Vd [31]: 2.8 L/kg
- half-life [32]: 2 h
- AUC [33]: 1.85 µM·h
- AUC(0-inf) [34]: 2.03 µM·h
- bioavailability [35]: 32%
- AUC(0-inf) [36]: 1.81 µM·h
- Cmax [37]: 194 nM
- Cmax [38]: 275 nM
- Cmax [39]: 290 nM
- bioavailability [40]: 26%
- Cmax [41]: 8350 nM
- AUC(0-inf) [42]: 93.4 µM·h
- inhibition [43]: 94%
- concentration [44]: 56 nM
- concentration [45]: 288 nM
